The results in this text go back to the supplement of paper PMC6965134.

± gives the standard deviation of the averaged measurements.

This series in a line: TIMS collisional cross section (CCS, N2) of the lipid ion; higher = larger ion cross section. To be noted: ionization mode: negative, one isomer drawn. The method, then:
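Lipid extracts of human plasma (NIST SRM 1950), mouse liver or HeLa cells were separated by nanoflow C18 LC (30 min gradient) and analysed by TIMS-PASEF on a timsTOF Pro. Ion mobility was calibrated with the Agilent tuning mix (negative mode ions) and converted to collisional cross sections (Mason–Schamp, N2).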

[1] abbreviates: sample type: Human plasma, ion (formula + adduct): [C47H83O13P-H] 1-.
Setting [2] is: sample type: Human plasma, ion (formula + adduct): [C45H81O13P-H] 1-.
Setting [3] is: sample type: Mouse Liver, ion (formula + adduct): [C45H81O13P-H] 1-.
Where [4] appears, read: sample type: Mouse Liver, ion (formula + adduct): [C45H79O13P-H] 1-.
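Further: lipids from MTBE extraction, five replicate injections per sample, 100 ms TIMS ramp spanning 0.6–1.95 Vs/cm², lipid identity assigned from PASEF MS/MS spectra.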

`CCCCC/C=C\C/C=C\C/C=C\C/C=C\CCCC(=O)OC[C@H](COP(=O)(O)OC[C@@H](O)CO)OC(=O)CCCCCCC/C=C\C/C=C\CCCCC` [PG 20:4_18:2]: the “TIMS collisional cross section” value (sample type: Mouse Liver, ion (formula + adduct): [C44H75O10P-H] 1-) worked out at 284.1 Å².
Consider `CC/C=C\C/C=C\C/C=C\C/C=C\C/C=C\C/C=C\CCC(=O)O[C@H](COC(=O)CCC/C=C\C/C=C\C/C=C\C/C=C\CCCCC)COP(=O)(O)OC[C@@H](O)CO` [PG 20:4_22:6], for which the “TIMS collisional cross section” value (sample type: Mouse Liver, ion (formula + adduct): [C48H75O10P-H] 1-) was determined as 291.4 Å².
For `CC/C=C\C/C=C\C/C=C\C/C=C\C/C=C\C/C=C\CCC(=O)OC[C@H](COP(=O)(O)OC[C@@H](O)CO)OC(=O)CCCCCCC/C=C\CCCCCC` [PG 22:6@_16:1], the “TIMS collisional cross section” value (sample type: Mouse Liver, ion (formula + adduct): [C44H73O10P-H] 1-) is reported as 283 Å².
On to `CC/C=C\C/C=C\C/C=C\C/C=C\C/C=C\C/C=C\CCC(=O)OC[C@H](COP(=O)(O)OC[C@@H](O)CO)OC(=O)CCCCC/C=C\C/C=C\C/C=C\C/C=C\CCCCC` [PG 22:6@_22:4], for which the “TIMS collisional cross section” value (sample type: Mouse Liver, ion (formula + adduct): [C50H79O10P-H] 1-) is reported as 297.7 Å².
Regarding `CC/C=C\C/C=C\C/C=C\C/C=C\C/C=C\C/C=C\CCC(=O)OC[C@H](COP(=O)(O)OC[C@@H](O)CO)OC(=O)CC/C=C\C/C=C\C/C=C\C/C=C\C/C=C\C/C=C\CC` [PG 22:6_22:6], the “TIMS collisional cross section” value (sample type: Mouse Liver, ion (formula + adduct): [C50H75O10P-H] 1-) is given as 294.8 Å².
For the molecule `CCCC/C=C\CCCCCCCC(=O)OCC(COP(=O)(O)OC1C(O)C(O)C(O)C(O)C1O)OC(=O)CCCCCCC/C=C\C/C=C\CCCCC` (stereo unspecified) [PI 14:1@_18:2], the “TIMS collisional cross section” value (sample type: Human plasma, ion (formula + adduct): [C41H73O13P+AcO] 1-) is on record as 287.2 Å².
For the molecule `CCCCCC/C=C\CCCCCCCC(=O)OC[C@H](COP(=O)(O)OC1C(O)C(O)C(O)[C@@H](O)C1O)OC(=O)CCCCCCCCCCCCCCC` (stereo partly specified) [PI 16:1_16:0@], the “TIMS collisional cross section” value (sample type: Human plasma, ion (formula + adduct): [C41H77O13P-H] 1-) amounted to 282.6 Å².
With `CCCCC/C=C\C/C=C\C/C=C\C/C=C\CCCC(=O)O[C@H](COC(=O)CCCCCCCCCCCCCCCCC)COP(=O)(O)OC1C(O)C(O)C(O)[C@@H](O)C1O` (stereo partly specified) [PI 18:0_20:4@], under setting [1], the “TIMS collisional cross section” value is on record as 298.1 Å².
On to `CCCCC/C=C\C/C=C\C/C=C\C/C=C\CCCC(=O)O[C@H](COC(=O)CCCCCCCCCCCCCCCCC)COP(=O)(O)OC1C(O)C(O)C(O)[C@@H](O)C1O` (stereo partly specified) [PI 18:0_20:4], for which the “TIMS collisional cross section” value came to 297.6 Å² under setting [1] and 297.6 Å² (sample type: Mouse Liver, ion (formula + adduct): [C47H83O13P-H] 1-).
With `CCCCCCCC/C=C\CCCCCCCC(=O)OCC(COP(=O)(O)OC1C(O)C(O)C(O)C(O)C1O)OC(=O)CCCCCCC/C=C\CCCCCCCCC` (stereo unspecified) [PI 18:1_19:1], the “TIMS collisional cross section” value (sample type: Human plasma, ion (formula + adduct): [C46H85O13P-CH3] 1-) amounted to 293.6 Å².
As to `CC/C=C\C/C=C\C/C=C\C/C=C\C/C=C\C/C=C\CCC(=O)O[C@H](COC(=O)CCCCCCC/C=C\CCCCCCCC)COP(=O)(O)OC1C(O)C(O)C(O)[C@@H](O)C1O` (stereo partly specified) [PI 18:1_22:6@], the “TIMS collisional cross section” value (sample type: Mouse Liver, ion (formula + adduct): [C49H81O13P-H] 1-) was 299.8 Å².
Consider `CCCCC/C=C\C/C=C\CCCCCCCC(=O)OC[C@H](COP(=O)(O)OC1[C@H](O)[C@H](O)C(O)[C@H](O)[C@H]1O)OC(=O)CCCCCCC/C=C\CCCCCCCC` (stereo partly specified) [PI 18:2_18:1], for which the “TIMS collisional cross section” value came out at 292.5 Å² under setting [2] and 291.9 Å² under setting [3].
As to `CCCCC/C=C\C/C=C\CCCCCCCC(=O)OC[C@H](COP(=O)(O)OC1C(O)C(O)C(O)[C@@H](O)C1O)OC(=O)CCCCCCC/C=C\C/C=C\CCCCC` (stereo partly specified) [PI 18:2_18:2], the “TIMS collisional cross section” value under setting [4] is 290.2 Å².
In the case of `CCCCC/C=C\C/C=C\CCCCCCCCCC(=O)OC[C@H](COP(=O)(O)OC1[C@H](O)[C@H](O)C(O)[C@H](O)[C@H]1O)OC(=O)CCCCCCCCCCCCCCCCC` (stereo partly specified) [PI 20:2_18:0@], the “TIMS collisional cross section” value (sample type: Human plasma, ion (formula + adduct): [C47H87O13P-H] 1-) worked out at 300.4 Å².
As to `CCCCC/C=C\C/C=C\C/C=C\CCCCCCC(=O)OC[C@H](COP(=O)(O)OC1[C@H](O)[C@H](O)C(O)[C@H](O)[C@H]1O)OC(=O)CCCCCCCCCCCCCCC` (stereo partly specified) [PI 20:3@_16:0], the “TIMS collisional cross section” value under setting [2] is on record as 298.9 Å².
Consider `CCCCC/C=C\C/C=C\C/C=C\CCCCCCC(=O)OC[C@H](COP(=O)(O)OC1[C@H](O)[C@H](O)C(O)[C@H](O)[C@H]1O)OC(=O)CCCCCCCCCCCCCCC` (stereo partly specified) [PI 20:3_16:0@], for which the “TIMS collisional cross section” value under setting [3] worked out at 293.1 Å².
Turning to `CCCCC/C=C\C/C=C\C/C=C\C/C=C\CCCC(=O)OC[C@H](COP(=O)(O)OC1[C@H](O)[C@H](O)C(O)[C@H](O)[C@H]1O)OC(=O)CCCCCCCCCCCCCCC` (stereo partly specified) [PI 20:4@_16:0], the “TIMS collisional cross section” value under setting [4] stood at 303.5 Å².
In the case of `CCCCC/C=C\C/C=C\C/C=C\C/C=C\CCCC(=O)OC[C@H](COP(=O)(O)OC1[C@H](O)[C@H](O)C(O)[C@H](O)[C@H]1O)OC(=O)CCCCCCCCCCCCCCC` (stereo partly specified) [PI 20:4_16:0], the “TIMS collisional cross section” value reads like this: (sample type: Human plasma, ion (formula + adduct): [C45H79O13P-H] 1-) 291.9 Å²; under setting [4], 291.3 Å².
For the molecule `CC/C=C\C/C=C\C/C=C\C/C=C\C/C=C\CCCC(=O)OC[C@H](COP(=O)(O)OC1[C@H](O)[C@H](O)C(O)[C@H](O)[C@H]1O)OC(=O)CCCCCCCCCCCCCCC` (stereo partly specified) [PI 20:5@_16:0], the “TIMS collisional cross section” value (sample type: Mouse Liver, ion (formula + adduct): [C45H77O13P-H] 1-) is 290.1 ± 1.1 Å².
As to `CC/C=C\C/C=C\C/C=C\C/C=C\C/C=C\CCCC(=O)OC[C@H](COP(=O)(O)OC1[C@H](O)[C@H](O)C(O)[C@H](O)[C@H]1O)OC(=O)CCCCCCCCCCCCCCCCC` (stereo partly specified) [PI 20:5_18:0@], the “TIMS collisional cross section” value (sample type: Mouse Liver, ion (formula + adduct): [C47H81O13P-H] 1-) came to 296.4 Å².
For `CCCCCCCCCCCCCCCC(=O)O[C@H](COC(=O)CCCCCCCCCCC)COP(=O)(O)OC[C@H](N)C(=O)O` [PS 12:0@_16:0], the “TIMS collisional cross section” value (sample type: Mouse Liver, ion (formula + adduct): [C34H66NO10P-H] 1-) is on record as 262.8 Å².
Consider `CCCC/C=C\CCCCCCCC(=O)OC[C@H](COP(=O)(O)OC[C@H](N)C(=O)O)OC(=O)CCCCCCCCCCCCCCC` [PS 14:1@_16:0], for which the “TIMS collisional cross section” value reads like this: (sample type: Human plasma, ion (formula + adduct): [C36H68NO10P-H] 1-) 269 Å²; (sample type: Mouse Liver, ion (formula + adduct): [C36H68NO10P-H] 1-) 268.4 Å².
For the molecule `CCCCCCCCCCCCCCCC(=O)OC[C@H](COP(=O)(O)OC[C@H](N)C(=O)O)OC(=O)CCCCCCCCCCCCC` [PS 16:0_14:0@], the “TIMS collisional cross section” value (sample type: Human plasma, ion (formula + adduct): [C36H70NO10P-H] 1-) is reported as 269.6 Å².
In the case of `CCCCCCCCCCCCCCCCCC(=O)OC[C@H](COP(=O)(O)OC[C@H](N)C(=O)O)OC(=O)CCCCCCCCCCCCCC` [PS 18:0_15:0@], under “sample type: Human plasma, ion (formula + adduct): [C39H76NO10P+OAcO] 1-”, the “TIMS collisional cross section” value is recorded as 293.3 Å².
Consider `CC/C=C\C/C=C\C/C=C\C/C=C\C/C=C\C/C=C\CCC(=O)O[C@H](COC(=O)CCCCCCC/C=C\CCCCCCCC)COP(=O)(O)OC[C@H](N)C(=O)O` [PS 18:1@_22:6], for which, where the note is “sample type: Mouse Liver, ion (formula + adduct): [C46H76NO10P-H] 1-”, the “TIMS collisional cross section” value was determined as 288 Å².
Turning to `CCCCCCCC/C=C\CCCCCCCC(=O)OC[C@H](COP(=O)(O)OC[C@H](N)C(=O)O)OC(=O)CCCCCCCCCCCCCCCCC` [PS 18:1_18:0], where the note is “sample type: Mouse Liver, ion (formula + adduct): [C42H80NO10P-H] 1-”, the “TIMS collisional cross section” value came to 284.2 Å².
Turning to `CCCCC/C=C\C/C=C\CCCCCCCC(=O)OC[C@H](COP(=O)(O)OC[C@H](N)C(=O)O)OC(=O)CCCCCCCCCCCCCCC` [PS 18:2@_16:0], the “TIMS collisional cross section” value (sample type: Mouse Liver, ion (formula + adduct): [C40H74NO10P-H] 1-) is 282.6 Å².
Consider `CC/C=C\C/C=C\C/C=C\C/C=C\C/C=C\C/C=C\CCC(=O)O[C@H](COC(=O)CCCCCCCCC/C=C\C/C=C\CCCCC)COP(=O)(O)OC[C@H](N)C(=O)O` [PS 20:2@_22:6], for which the “TIMS collisional cross section” value (sample type: Mouse Liver, ion (formula + adduct): [C48H78NO10P-H] 1-) was 296.6 Å².
Turning to `CCCCC/C=C\C/C=C\C/C=C\CCCCCCC(=O)OC[C@H](COP(=O)(O)OC[C@H](N)C(=O)O)OC(=O)CCCCCCCCCCCCCCC` [PS 20:3@_16:0], under “sample type: Mouse Liver, ion (formula + adduct): [C42H76NO10P-H] 1-”, the “TIMS collisional cross section” value is reported as 281.3 Å².
Regarding `CCCCC/C=C\C/C=C\C/C=C\CCCCCCC(=O)OC[C@H](COP(=O)(O)OC[C@H](N)C(=O)O)OC(=O)CCCCCCCCCCCCCCCCC` [PS 20:3_18:0], the “TIMS collisional cross section” value (sample type: Mouse Liver, ion (formula + adduct): [C44H80NO10P-H] 1-) was 286.4 Å².
Regarding `CCCCC/C=C\C/C=C\C/C=C\C/C=C\CCCC(=O)OC[C@H](COP(=O)(O)OC[C@H](N)C(=O)O)OC(=O)CCCCCCCCCCCCCCC` [PS 20:4_16:0], the “TIMS collisional cross section” value (sample type: Mouse Liver, ion (formula + adduct): [C42H74NO10P-H] 1-) worked out at 280.1 Å².
As to `CCCCC/C=C\C/C=C\C/C=C\C/C=C\CCCC(=O)OC[C@H](COP(=O)(O)OC[C@H](N)C(=O)O)OC(=O)CCCCCCC/C=C\CCCCCCCC` [PS 20:4_18:1], the “TIMS collisional cross section” value (sample type: Mouse Liver, ion (formula + adduct): [C44H76NO10P-H] 1-) amounted to 284.6 Å².
